Laboratory results from PMC11249646, “Small-Molecule Disruptors of the Interaction between Calcium- and Integrin-Binding Protein 1 and Integrin αIIbβ3 as Novel Antiplatelet Agents” (ACS Pharmacology & Translational Science, 2024).
Read-outs that look alike come from different tables or passages of the source.

Key:
Type in all cases: binding
[1] = target: T1, GST-CIB1 : F-scrambled peptide (Homo sapiens, UniProt Q99828); assay: FP scrambled-peptide counter screen, 384-well format; conditions: F-scrambled peptide; for IC50: read-out: 384-well COUNTERSCREEN IC50; for 384-well COUNTERSCREEN Confirm?: *: Curve in opposite direction
T1 construct: made in house; host or cells: BL-21 plus RIL cells (E. coli)
T1 sequence (Q99828 1-191): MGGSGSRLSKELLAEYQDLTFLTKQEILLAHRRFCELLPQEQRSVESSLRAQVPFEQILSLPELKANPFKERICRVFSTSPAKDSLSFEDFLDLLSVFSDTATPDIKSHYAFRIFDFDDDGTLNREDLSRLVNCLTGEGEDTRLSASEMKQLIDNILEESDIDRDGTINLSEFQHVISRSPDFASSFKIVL

[2] = target: T2, CIB1 and αIIb interaction (GST-CIB1 : F-αIIb peptide) (Homo sapiens, UniProt Q99828); assay: FP assay, 384-well format (screen); set-up: 384-well SCREEN Efficacy (%): concentration or dose not given beside the values; conditions: F-αIIb peptide; for IC50: read-out: 384-well SCREEN IC50; for 384-well SCREEN Confirm?: YES/NO
T2 construct: made in house; host or cells: BL-21 plus RIL cells (E. coli)
T2 sequence (Q99828 1-191): T1 sequence (Q99828 1-191)

[3] = target: T3, CIB1 and αIIb interaction (CIB1-GST : F-αIIb peptide) (Homo sapiens, UniProt Q99828); assay: FP assay, 1536-well qHTS format (primary and confirmatory screen); conditions: for CONFIRMATORY SCREEN Confirm?: YES/NO call; for CONFIRMATORY SCREEN Curve Class: qHTS curve class; for CONFIRMATORY SCREEN Curve Class / Curve Class: negative sign = inhibitory curve; for CONFIRMATORY SCREEN Efficacy (%) / Efficacy (%): negative = inhibition
T3 construct: made in house; host or cells: BL-21 plus RIL cells (E. coli)
T3 sequence (Q99828 1-191): T1 sequence (Q99828 1-191)

[4] = target: T1, GST-CIB1 : F-scrambled peptide; assay: FP scrambled-peptide counter screen, 1536-well format; conditions: scrambled-peptide counterscreen; for COUNTERSCREEN Confirm?: YES/NO call; for COUNTERSCREEN Curve Class: qHTS curve class; for IC50: read-out: COUNTERSCREEN IC50
[5] = confirmatory screen, read-out: CONFIRMATORY SCREEN IC50
[6] = qHTS primary screen hits, Table S2
[7] = qHTS primary screen hits, Table S2, read-out: IC50
[8] = qHTS primary screen hits, Table S2, several classes where COUNT > 1

| Compound | 384-well COUNTERSCREEN Efficacy (%) [1] [%] | IC50 [1] [µM] | 384-well SCREEN Efficacy (%) [2] [%] | IC50 [2] [µM] | CONFIRMATORY SCREEN Confirm? ([3]; confirmatory screen) | CONFIRMATORY SCREEN Curve Class ([3]; confirmatory screen) | CONFIRMATORY SCREEN Efficacy (%) ([3]; confirmatory screen) | IC50 [3, 5] [µM] | Efficacy (%) [3, 6] [%] | Curve Class [3, 6] | IC50 [3, 7] [µM] | COUNTERSCREEN Efficacy (%) [4] [%] | COUNTERSCREEN Confirm? [4] | COUNTERSCREEN Curve Class [4] | IC50 [4] [µM] | 384-well COUNTERSCREEN Confirm? [1] | 384-well SCREEN Confirm? [2] | Efficacy (%) ([3]; qHTS FP screen hits, Table S2) | IC50 ([3]; qHTS FP screen hits, Table S2, read-out: IC50) [µM] | Curve Class [3, 8] |
| --- | --- | --- | --- | --- | --- | --- | --- | --- | --- | --- | --- | --- | --- | --- | --- | --- | --- | --- | --- | --- |
| Cc1cc(Nc2c(Nc3nnc(-c4ccncc4)s3)c(=O)c2=O)ccc1Cl.O=C(O)C(F)(F)F [NCGC00241510-01] | 64 | > 120 | 23 | > 120 | YES | -1.4 | -51 | 11.2 | -35 | -2.4 | 39.8 | -33 | YES | -2.2 | 44.7 |  |  |  |  |  |
| Cc1cc(NS(=O)(=O)c2ccc(NCCc3ccc(Cl)c(Cl)c3)cc2)no1.O=C(O)C(F)(F)F [NCGC00244100-02] | 23 | > 120 | 42 | 22.4 | YES | -2.4 | -36 |  |  |  |  | 132 | YES | 3 | 39.8 | YES | YES | -22 | 22.4 |  |
| Cc1ccc(Cl)cc1NC(=O)c1nc[nH]c1C(=O)Nc1nc2ccccc2[nH]1 [NCGC00244259-01] | 48 | 15.8 | 48 | 11.2 | YES | -1.2 | -28 | 7.9 | -42 |  | 20 | -15 | YES | 4 |  |  | YES |  |  | -2.2 |
| O=C(Cc1ccc(Cl)c(Cl)c1)Nc1ccc(S(=O)(=O)Nc2ccon2)cc1.O=C(O)C(F)(F)F [NCGC00244858-03] | 43 | 25.1 | 35 | 8.9 | YES | -1.4 | -39 | 22.4 | -27 | -1.4 | 3.2 | -10 | YES | 4 |  |  | YES |  |  |  |
| CCOC(=O)c1nnc(NS(=O)(=O)c2ccc(NC(=O)Cc3ccc(Cl)c(Cl)c3)cc2)s1.O=C(O)C(F)(F)F [NCGC00248354-01] | 20 | > 120 | 31 | 28.2 | YES | -1.2 | -47 | 15.8 |  |  |  | 66 | YES |  | 44.7 | YES | YES |  |  |  |
| O=C(Cc1ccc(Cl)c(Cl)c1)Nc1ccc(S(=O)(=O)Nc2nnc(-c3ccccn3)s2)cc1.O=C(O)C(F)(F)F [NCGC00248355-01] | 38 | > 120 | 44 | 11.2 | YES | -2.1 | -132 | 35.5 | -50 |  | 25.1 | -73 | YES | -2.4 | 79.4 | YES | YES |  |  | -1.2 |
| O=C(CN(c1cccc(Br)c1)S(=O)(=O)c1ccccc1)NN=CC1=CC(=[N+]([O-])O)C=CC1=O.O=C(O)C(F)(F)F [NCGC00248455-01] | 52 | 15.8 | 40 | 11.2 | YES | -2.1 | -91 | 31.6 | -62 | -2.2 | 17.8 | -13 | YES | 4 |  |  | YES |  |  |  |
